# Measurements as given in patent US10577399B2, “Modified lantibiotics and methods of making and using the modified lantibiotics” (priority 2016, dated 2020).
# Read-outs that look alike come from different tables or passages of the source. No end group written: not given here.
# How the values were obtained:
# M. luteus ATCC 10240 = assay type: cell-based, Micrococcus luteus; conditions: for MIC (μg/mL) M. luteus: Table 7, chemically modified analogs; for M. luteus ATCC 10240 MIC / M. luteus ATCC 10240 MLC: Table 11
# Description: (§1) Minimum Inhibitory Concentrations (MICs) were determined according to previously published protocol^31. A stock solution of the antibiotics tested was first suspended in 50% acetonitrile (ACN) at a concentration 640 μg/mL. This stock was subsequently diluted 2-fold until a final concentration 0.156 μg/mL was reached. Subsequently, 10 μl of each dilution was placed into a well on a 96 well microtiter plate. M. luteus ATCC 10240, S. pneumoniae, and B. subtilis PY79 were grown overnight in THyex at 37° C. Cultures were diluted in the morning to 0.1 OD600 and allowed to grow to 0.6 OD600. This culture was diluted a 100-fold in fresh THyex media and then 400 μl of this culture was added to 10 mL of fresh THyex. The suspension contains approximately 10^5 colony forming units (CFUs). The bacterial suspension (190 μL) was added to each well containing 10 μL of antibiotic suspension or solvent blank. […] Following the 15 minute pretreatment, 190 μL was added to each well as described above. The MIC is described as the […] concentration of antibiotic that prevented visible growth after 24 hours.
# FIG. 11 illustrates the bioactivity of various core peptide mutants of mutacin 1130. The activity of the core mutant peptides is expressed as a ratio of the area of the zone of inhibition of each mutant strain to the area of the zone of inhibition of the wild-type strain against indicator strain of Micrococcus luteus. […] The deferred antagonism assay is an overlay assay of the indicator strain onto plates containing heat killed colonies of the mutacin producer strain after growing overnight. Core peptide mutants having inhibitory activity were isolated and the purified products were further evaluated by a standard minimum inhibitory concentration (MIC) assay.
# S. pneumoniae ATCC 27336 = assay type: cell-based, Streptococcus pneumoniae; conditions: for MIC (μg/mL) S. pneumoniae: Table 7, S. pneumoniae ATCC 27336; for S. pneumonia ATCC 27336 MIC / S. pneumonia ATCC 27336 MLC: Table 11
# Description: as §1, with “hours. […]” for “hours.”
# C. accolens KPL 1818 = assay: MIC/MLC assay against C. accolens KPL 1818; assay type: cell-based; conditions: THyex broth with 1% Tween 80
# S. aureus ATCC 25923 = assay: MIC/MLC assay against S. aureus; assay type: cell-based, Staphylococcus aureus; conditions: Table 11
# C. accolens ATCC 49725 = assay: MIC/MLC assay against C. accolens ATCC 49725; assay type: cell-based; conditions: THyex broth with 1% Tween 80
# [1] = listed as diaminoheptane conjugate
Compound,MIC (μg/mL) M. luteus (M. luteus ATCC 10240; listed as chlorophenylalanine conjugate) [µg/mL],MIC (μg/mL) S. pneumoniae (S. pneumoniae ATCC 27336; listed as di-chlorophenylalanine conjugate) [µg/mL],MIC (μg/mL) S. pneumoniae (S. pneumoniae ATCC 27336; [1]) [µg/mL],MIC (μg/mL) M. luteus (M. luteus ATCC 10240) [µg/mL],MIC (μg/mL) M. luteus (M. luteus ATCC 10240; [1]) [µg/mL],MIC (μg/mL) S. pneumoniae (S. pneumoniae ATCC 27336) [µg/mL],S. pneumonia ATCC 27336 MIC (S. pneumoniae ATCC 27336) [micrograms per milliliter],S. pneumonia ATCC 27336 MLC (S. pneumoniae ATCC 27336) [micrograms per milliliter],M. luteus ATCC 10240 MIC (M. luteus ATCC 10240) [micrograms per milliliter],M. luteus ATCC 10240 MLC (M. luteus ATCC 10240) [micrograms per milliliter],C. accolens KPL 1818 MIC (C. accolens KPL 1818) [micrograms per milliliter],C. accolens KPL 1818 MLC (C. accolens KPL 1818) [micrograms per milliliter],S. aureus ATCC 25923 MIC (S. aureus ATCC 25923) [micrograms per milliliter],S. aureus ATCC 25923 MLC (S. aureus ATCC 25923) [micrograms per milliliter],C. accolens ATCC 49725 MIC (C. accolens ATCC 49725) [micrograms per milliliter],C. accolens ATCC 49725 MLC (C. accolens ATCC 49725) [micrograms per milliliter]
C=C1NC(=O)[C@H](Cc2c[nH]c3ccccc23)NC(=O)[C@H](NC(=O)[C@H](CCCCN)NC(=O)[C@@H](N)Cc2ccccc2)CSC[C@@H](C(=O)N[C@H]2C(=O)N3CCC[C@H]3C(=O)NCC(=O)N[C@H](C(=O)N[C@@H](C)C(=O)N[C@@H](CCCNC(=N)N)C(=O)N/C(=C\C)C(=O)NCC(=O)N[C@@H]3CSC[C@@H]4NC(=O)[C@H](Cc5ccc(O)cc5)NC(=O)[C@@H](CSC[C@@H](C(=O)NCc5ccc(Cl)cc5)NC4=O)NC(=O)[C@H](CC(N)=O)NC(=O)[C@H](Cc4ccccc4)NC3=O)CS[C@H]2C)NC(=O)[C@H](CC(C)C)NC1=O [Mutacin 1140 - chlorophenylalanine],1.0,–,–,–,–,–,–,–,–,–,–,–,–,–,–,–
C=C1NC(=O)[C@H](Cc2c[nH]c3ccccc23)NC(=O)[C@H](NC(=O)[C@H](CCCCN)NC(=O)[C@@H](N)Cc2ccccc2)CSC[C@@H](C(=O)N[C@H]2C(=O)N3CCC[C@H]3C(=O)NCC(=O)N[C@H](C(=O)N[C@@H](C)C(=O)N[C@@H](CCCNC(=N)N)C(=O)N/C(=C\C)C(=O)NCC(=O)N[C@@H]3CSC[C@@H]4NC(=O)[C@H](Cc5ccc(O)cc5)NC(=O)[C@@H](CSC[C@@H](C(=O)NCc5ccc(Cl)c(Cl)c5)NC4=O)NC(=O)[C@H](CC(N)=O)NC(=O)[C@H](Cc4ccccc4)NC3=O)CS[C@H]2C)NC(=O)[C@H](CC(C)C)NC1=O [Mutacin 1140 - di-chlorophenylalanine],–,8.0,–,–,–,–,–,–,–,–,–,–,–,–,–,–
C=C1NC(=O)[C@H](Cc2c[nH]c3ccccc23)NC(=O)[C@H](NC(=O)[C@H](CCCCN)NC(=O)[C@@H](N)Cc2ccccc2)CSC[C@@H](C(=O)N[C@H]2C(=O)N3CCC[C@H]3C(=O)NCC(=O)N[C@H](C(=O)N[C@@H](C)C(=O)N[C@@H](CCCNC(=N)N)C(=O)N/C(=C\C)C(=O)NCC(=O)N[C@@H]3CSC[C@@H]4NC(=O)[C@H](Cc5ccc(O)cc5)NC(=O)[C@@H](CSC[C@@H](C(=O)NCCCCCCCN)NC4=O)NC(=O)[C@H](CC(N)=O)NC(=O)[C@H](Cc4ccccc4)NC3=O)CS[C@H]2C)NC(=O)[C@H](CC(C)C)NC1=O [Mutacin 1140 - diaminoheptane],–,–,2.0,0.25,0.5,–,–,–,–,–,–,–,–,–,–,–
C=C1NC(=O)[C@H](Cc2c[nH]c3ccccc23)NC(=O)[C@H](NC(=O)[C@H](CCCCN)NC(=O)[C@@H](N)Cc2ccccc2)CSC[C@@H](C(=O)N[C@H]2C(=O)N3CCC[C@H]3C(=O)NCC(=O)N[C@H](C(=O)N[C@@H](C)C(=O)N[C@@H](CCCNC(=N)N)C(=O)N/C(=C\C)C(=O)NCC(=O)N[C@@H]3CSC[C@@H]4NC(=O)[C@H](Cc5ccc(O)cc5)NC(=O)[C@@H](CSC[C@@H](C(=O)NC)NC4=O)NC(=O)[C@H](CC(N)=O)NC(=O)[C@H](Cc4ccccc4)NC3=O)CS[C@H]2C)NC(=O)[C@H](CC(C)C)NC1=O [Mutacin 1140 - methylamine],–,–,–,0.125,–,0.5,–,–,–,–,–,–,–,–,–,–
"A12T:T14G: core peptide mutant of mutacin 1140, positions 12, 14 replaced by Threonine and Glycine (FKSWSLCTPGCTRGGSFNSYCC; ends and bridges not checked; cysteine pairing not given here; UniProt O68586 42-63, looked up, variant A12T T14G)",–,–,–,–,–,–,2,2,0.25,0.25,0.5,1,>32,>32,0.125,0.25
"R13A:T14A: core peptide mutant of mutacin 1140, positions 13, 14 replaced by Alanine and Alanine (FKSWSLCTPGCAAAGSFNSYCC; UniProt O68586 42-63, looked up, variant R13A T14A)",–,–,–,–,–,–,2,2,0.25,0.5,0.5,0.5,32,32,0.5,0.5
"S5A:A12S dehydrated: core peptide mutant of mutacin 1140, positions 5, 12 replaced by Alanine and Serine; dehydrated form (FKSWALCTPGCSRTGSFNSYCC; ends and bridges not checked; also: dehydrated form; UniProt O68586 42-63, looked up, variant S5A A12S)",–,–,–,–,–,–,0.125,0.125,0.125,0.25,0.5,1,16,32,0.25,0.25
"S5A:A12S un-dehydrated: core peptide mutant of mutacin 1140, positions 5, 12 replaced by Alanine and Serine; un-dehydrated form (FKSWALCTPGCSRTGSFNSYCC; ends and bridges not checked; cysteine pairing not given here; UniProt O68586 42-63, looked up, variant S5A A12S)",–,–,–,–,–,–,0.125,0.125,0.125,0.25,–,–,16,16,–,–
"S5G:R13A:T14A: core peptide mutant of mutacin 1140, positions 5, 13 and 14 replaced by Glycine, Alanine and Alanine (FKSWGLCTPGCAAAGSFNSYCC; ends and bridges not checked; cysteine pairing not given here; UniProt O68586 42-63, looked up, variant S5G R13A T14A)",–,–,–,–,–,–,8,>16,2,16,>4,>4,>32,>32,>4,>4
